Results: article PMC9851200, “Multiparameter phenotypic screening for endogenous TFEB and TFE3 translocation identifies novel chemical series modulating lysosome function” (Autophagy, 2022)

What was measured:
endogenous TFEB = assay: TFEB nuclear translocation, immunocytochemistry high-content imaging; format: cell-based; conditions: PKIS2 primary screening; further: test concentration or dose not given here
endogenous TFE3 = assay: TFE3 nuclear translocation, immunocytochemistry high-content imaging; format: cell-based; conditions: PKIS2 primary screening; further: test concentration or dose not given here
SH-SY5Y cells [1] = conditions: PKIS2 primary screening; for DQ Intensity: DQ Red BSA intensity; for DQ Spot: DQ Red BSA spot count
Description: The PKIS2 Library was supplied by The Structural Genomics Consortium at the University of North Carolina at Chapel Hill.

SH-SY5Y cells [2] = assay: AK (adenylate kinase) release ToxiLight cytotoxicity assay; conditions: PKIS2 primary screening; further: reference of the scale not given here
SH-SY5Y cells [3] = assay: Nuclear count from microscopy images (cellular growth and toxicity); conditions: PKIS2 primary screening; further: reference of the scale not given here
Wherever DQ Intensity is given: reference of the scale not given here.
Wherever DQ Spot is given: reference of the scale not given here.

## CC(C)Nc1cc(-c2ccc3c(N)n[nH]c3c2)nc(N)n1 [GSK2221681]
Endogenous TFEB
  TFEB %: 4.14%
Endogenous TFE3
  TFE3 %: 7.71%
SH-SY5Y cells [1]
  DQ Intensity: 78.82
  DQ Spot: 81.03
SH-SY5Y cells [2]
  AK: 98.58
SH-SY5Y cells [3]
  Nuclear Count: 122.37

## CNc1cc(-c2ccc3c(N)n[nH]c3c2)nc(N)n1 [GSK2224810]
Endogenous TFEB
  TFEB %: 4.15%
Endogenous TFE3
  TFE3 %: 7.03%
SH-SY5Y cells [1]
  DQ Intensity: 93.32
  DQ Spot: 95.12
SH-SY5Y cells [2]
  AK: 132.47
SH-SY5Y cells [3]
  Nuclear Count: 109.90

## Nc1nc(Nc2ccccc2)cc(-c2ccc3c(N)n[nH]c3c2)n1 [GSK2225749]
Endogenous TFEB
  TFEB %: 8.82%
Endogenous TFE3
  TFE3 %: 13.67%
SH-SY5Y cells [1]
  DQ Intensity: 84.54
  DQ Spot: 97.02
SH-SY5Y cells [2]
  AK: 135.05
SH-SY5Y cells [3]
  Nuclear Count: 92.29

## Nc1nc(-c2ccc3c(N)n[nH]c3c2)cc(N2CCCC2)n1 [GSK2227430]
Endogenous TFEB
  TFEB %: 3.47%
Endogenous TFE3
  TFE3 %: 14.08%
SH-SY5Y cells [1]
  DQ Intensity: 87.93
  DQ Spot: 104.79
SH-SY5Y cells [2]
  AK: 104.62
SH-SY5Y cells [3]
  Nuclear Count: 85.02

## Nc1nc(-c2ccc3c(N)n[nH]c3c2)cc(N2CCCCC2)n1 [GSK2228768]
Endogenous TFEB
  TFEB %: 3.41%
Endogenous TFE3
  TFE3 %: 12.52%
SH-SY5Y cells [1]
  DQ Intensity: 114.62
  DQ Spot: 125.41
SH-SY5Y cells [2]
  AK: 117.34
SH-SY5Y cells [3]
  Nuclear Count: 85.37

## CC(C)c1cc(-c2ccc3c(N)n[nH]c3c2)nc(N)n1 [GSK2250882]
Endogenous TFEB
  TFEB %: 3.86%
Endogenous TFE3
  TFE3 %: 20.48%
SH-SY5Y cells [1]
  DQ Intensity: 90.98
  DQ Spot: 110.65
SH-SY5Y cells [2]
  AK: 82.41
SH-SY5Y cells [3]
  Nuclear Count: 92.23

## C[C@@H]1CCCCN1c1cc(-c2ccc3c(N)n[nH]c3c2)nc(N)n1 [GSK2258759]
Endogenous TFEB
  TFEB %: 3.40%
Endogenous TFE3
  TFE3 %: 12.52%
SH-SY5Y cells [1]
  DQ Intensity: 61.15
  DQ Spot: 84.49
SH-SY5Y cells [2]
  AK: 88.63
SH-SY5Y cells [3]
  Nuclear Count: 88.84

## C[C@H]1CC[C@@H](C(=O)Nc2ccccc2)CN1c1cc(-c2ccc3c(N)n[nH]c3c2)nc(N)n1 [GSK2283293]
Endogenous TFEB
  TFEB %: 5.47%
Endogenous TFE3
  TFE3 %: 11.00%
SH-SY5Y cells [1]
  DQ Intensity: 68.06
  DQ Spot: 92.27
SH-SY5Y cells [2]
  AK: 101.77
SH-SY5Y cells [3]
  Nuclear Count: 95.91

## C[C@@H]1CC[C@@H](C(=O)Nc2ccccc2)CN1c1cc(-c2ccc3c(N)n[nH]c3c2)nc(N)n1 [GSK2286062]
Endogenous TFEB
  TFEB %: 4.27%
Endogenous TFE3
  TFE3 %: 8.18%
SH-SY5Y cells [1]
  DQ Intensity: 74.11
  DQ Spot: 77.23
SH-SY5Y cells [2]
  AK: 87.26
SH-SY5Y cells [3]
  Nuclear Count: 138.15

## CC(C)(C)OC(=O)NC1CCCN(c2cc(-c3ccc4c(N)n[nH]c4c3)nc(N)n2)C1 (stereo not drawn) [GSK2286096]
Endogenous TFEB
  TFEB %: 2.89%
Endogenous TFE3
  TFE3 %: 7.82%
SH-SY5Y cells [1]
  DQ Intensity: 137.35
  DQ Spot: 108.17
SH-SY5Y cells [2]
  AK: 116.95
SH-SY5Y cells [3]
  Nuclear Count: 128.62

## Nc1nc(-c2ccc3c(N)n[nH]c3c2)cc(N2CCCC(NC(=O)c3ccccc3)C2)n1 (stereo not drawn) [GSK2286775]
Endogenous TFEB
  TFEB %: 4.25%
Endogenous TFE3
  TFE3 %: 13.75%
SH-SY5Y cells [1]
  DQ Intensity: 67.10
  DQ Spot: 83.48
SH-SY5Y cells [2]
  AK: 119.49
SH-SY5Y cells [3]
  Nuclear Count: 104.24

## Nc1nc(-c2ccc3c(N)n[nH]c3c2)cc(N2CCC[C@@H](C(=O)Nc3ccccc3)C2)n1 [GSK2288359]
Endogenous TFEB
  TFEB %: 6.39%
Endogenous TFE3
  TFE3 %: 14.08%
SH-SY5Y cells [1]
  DQ Intensity: 83.69
  DQ Spot: 103.68
SH-SY5Y cells [2]
  AK: 96.03
SH-SY5Y cells [3]
  Nuclear Count: 88.88

## C[C@@H]1CC[C@H](C(=O)NC2CCCCC2)CN1c1cc(-c2ccc3c(N)n[nH]c3c2)nc(N)n1 [GSK2291363]
Endogenous TFEB
  TFEB %: 3.73%
Endogenous TFE3
  TFE3 %: 16.02%
SH-SY5Y cells [1]
  DQ Intensity: 117.06
  DQ Spot: 112.54
SH-SY5Y cells [2]
  AK: 87.12
SH-SY5Y cells [3]
  Nuclear Count: 117.58

## CNc1nc(-c2ccc3c(N)n[nH]c3c2)cc(N2C[C@@H](C(=O)Nc3ccccc3)CC[C@H]2C)n1 [GSK2298859]
Endogenous TFEB
  TFEB %: 6.90%
Endogenous TFE3
  TFE3 %: 12.86%
SH-SY5Y cells [1]
  DQ Intensity: 117.75
  DQ Spot: 109.70
SH-SY5Y cells [2]
  AK: 105.92
SH-SY5Y cells [3]
  Nuclear Count: 105.37

## CNc1nc(-c2ccc3c(N)n[nH]c3c2)cc(N2C[C@@H](C(=O)NC3CCCCC3)OC[C@H]2C)n1 [GSK2375584]
Endogenous TFEB
  TFEB %: 4.51%
Endogenous TFE3
  TFE3 %: 6.46%
SH-SY5Y cells [1]
  DQ Intensity: 111.29
  DQ Spot: 104.60
SH-SY5Y cells [2]
  AK: 76.99
SH-SY5Y cells [3]
  Nuclear Count: 127.70

## CC[C@@H]1CO[C@H](C(=O)Nc2ccccc2)CN1c1cc(-c2ccc3c(N)n[nH]c3c2)nc(NC)n1 [GSK2376236]
Endogenous TFEB
  TFEB %: 3.52%
Endogenous TFE3
  TFE3 %: 8.81%
SH-SY5Y cells [1]
  DQ Intensity: 102.90
  DQ Spot: 87.99
SH-SY5Y cells [2]
  AK: 114.69
SH-SY5Y cells [3]
  Nuclear Count: 121.19

## Cc1cc(-c2ccc3c(c2)CC[C@@H](N[C@@H](C)c2ccccc2)C3)cnc1N [GW412617]
Endogenous TFEB
  TFEB %: 15.77%
Endogenous TFE3
  TFE3 %: 41.99%
SH-SY5Y cells [1]
  DQ Intensity: 86.08
  DQ Spot: 45.16
SH-SY5Y cells [2]
  AK: 35.11
SH-SY5Y cells [3]
  Nuclear Count: 101.83

## Cc1cc(NCC(c2ccccc2)c2ccccc2)nc(NCc2ccc(C(F)(F)F)cc2)n1 [GW497681]
Endogenous TFEB
  TFEB %: 10.26%
Endogenous TFE3
  TFE3 %: 31.99%
SH-SY5Y cells [1]
  DQ Intensity: 118.39
  DQ Spot: 90.21
SH-SY5Y cells [2]
  AK: 143.14
SH-SY5Y cells [3]
  Nuclear Count: 83.96

## Cc1ccc(Nc2ccnc(Nc3ccc4c(c3)CS(=O)(=O)C4)n2)cc1O [GW579362]
Endogenous TFEB
  TFEB %: 7.59%
Endogenous TFE3
  TFE3 %: 18.94%
SH-SY5Y cells [1]
  DQ Intensity: 160.36
  DQ Spot: 117.73
SH-SY5Y cells [2]
  AK: 117.18
SH-SY5Y cells [3]
  Nuclear Count: 72.17

## Cc1ccc(Nc2ccnc(Nc3ccc(C)c(F)c3)n2)cc1O [GW582868]
Endogenous TFEB
  TFEB %: 8.86%
Endogenous TFE3
  TFE3 %: 12.77%
SH-SY5Y cells [1]
  DQ Intensity: 80.99
  DQ Spot: 94.80
SH-SY5Y cells [2]
  AK: 95.37
SH-SY5Y cells [3]
  Nuclear Count: 87.67

## CCS(=O)(=O)c1ccc(OC)c(Nc2ncc(-c3ccc(F)cc3)o2)c1 [GW591947]
Endogenous TFEB
  TFEB %: 4.85%
Endogenous TFE3
  TFE3 %: 8.80%
SH-SY5Y cells [1]
  DQ Intensity: 82.17
  DQ Spot: 99.73
SH-SY5Y cells [2]
  AK: 64.95
SH-SY5Y cells [3]
  Nuclear Count: 114.66

## CC(C)S(=O)(=O)N1CCN(Cc2ccc3c(c2)nc(NC(=O)c2ccsc2)n3C[C@H](O)c2ccccc2)CC1 [GW635815]
Endogenous TFEB
  TFEB %: 6.81%
Endogenous TFE3
  TFE3 %: 6.25%
SH-SY5Y cells [1]
  DQ Intensity: 100.23
  DQ Spot: 98.01
SH-SY5Y cells [2]
  AK: 78.91
SH-SY5Y cells [3]
  Nuclear Count: 125.41

## N#CCc1ccc(Nc2nccc(Nc3ccc(Oc4ccccc4)cc3)n2)cc1 [GW639905]
Endogenous TFEB
  TFEB %: 8.66%
Endogenous TFE3
  TFE3 %: 15.01%
SH-SY5Y cells [1]
  DQ Intensity: 108.02
  DQ Spot: 113.65
SH-SY5Y cells [2]
  AK: 115.45
SH-SY5Y cells [3]
  Nuclear Count: 107.11

## COC(=O)Nc1nc2ccc(Oc3ccc(NC(=O)Nc4cc(C(F)(F)F)ccc4F)cc3)cc2[nH]1 [GW654607]
Endogenous TFEB
  TFEB %: 5.38%
Endogenous TFE3
  TFE3 %: 33.87%
SH-SY5Y cells [1]
  DQ Intensity: 53.63
  DQ Spot: 73.16
SH-SY5Y cells [2]
  AK: 90.67
SH-SY5Y cells [3]
  Nuclear Count: 81.29

## NC(=O)c1cccc(Nc2nccc(Nc3ccc(Oc4cccc(Cl)c4)c(Cl)c3)n2)c1 [GW659008]
Endogenous TFEB
  TFEB %: 11.92%
Endogenous TFE3
  TFE3 %: 11.36%
SH-SY5Y cells [1]
  DQ Intensity: 100.37
  DQ Spot: 103.30
SH-SY5Y cells [2]
  AK: 92.69
SH-SY5Y cells [3]
  Nuclear Count: 86.88

## NC(=O)c1cccc(Nc2nccc(Nc3ccc(Oc4c(Cl)cccc4Cl)c(Cl)c3)n2)c1 [GW659009]
Endogenous TFEB
  TFEB %: 6.80%
Endogenous TFE3
  TFE3 %: 20.40%
SH-SY5Y cells [1]
  DQ Intensity: 60.26
  DQ Spot: 79.24
SH-SY5Y cells [2]
  AK: 74.50
SH-SY5Y cells [3]
  Nuclear Count: 101.88
